The record followed here is patent US20240116986A1, “FUSION PEPTIDES CONTAINING DIMERIC ALPHA-HELICES, PEPTIDE-MOLECULARCONJUGATES CONTAINING THE SAME AND NUCLEIC ACID DELIVERY COMPOSITIONSCONTAINING THE SAME” (Artprobio Co., Ltd., priority 2022, published 2024).

The subject of one data set is EGFP mRNA. Kind of data set: EMSA of nanostructure formation with EGFP mRNA. The data set is classed as binding. The following applies: EMSA; mRNA concentration fixed; incubated overnight. The protocol: (§1) When a nanostructure was formed through self-assembly by reacting a peptide-molecule conjugate (SAB) with a nucleic acid material (dsDNA or mRNA), agarose gel EMSA was conducted to measure their interactions, binding ratio, stability, etc.
First, the nucleic acid material of a fixed concentration (100 fmol mRNA) was reacted with the peptide-molecule conjugate (SAB) of various concentrations. Immediately before mixing with the nucleic acid material, the peptide-molecule conjugate (SAB) was sonicated for 5 minutes to prevent self-aggregation. The sonicated peptide-molecule conjugate (SAB, 5 μL) was added to the nucleic acid material ([…]) and a nanostructure was prepared by adding distilled water. The sample was prepared by snap cooling. Specifically, after heating at 70° C. for 10 minutes and snap-cooling on ice, the prepared sample was stored at room temperature. The stored sample was mixed with 2 μL of 60% glycerol. Electrophoresis was performed at 100 V for 60 minutes on 0.8% agarose gel using 1×TBE. The band was observed after staining with SYBR™ Gold nucleic acid gel stain (Invitrogen, Waltham, USA).
After sonicating the peptide-molecule conjugate (SAB-gn, n=1 to 6) aqueous solution for 5 minutes, it was immediately mixed with an EGFP mRNA (200 μL) solution. […] An […] nanostructure was prepared as follows by mixing the peptide-molecule conjugate (SAB-gn, n=1 to 6) with the EGFP mRNA. […] The EGFP mRNA and the peptide-molecule conjugate (SAB-gn, n=1 to 6) were mixed at a charge ratio (+/−) of 0, 0.008, 0.016, 0.031, 0.063, 0.125, 0.25, 0.5, 1, 2, 4, 8, 16, 32 or 50.
After incubating the mixture solution overnight and centrifuging at 16,100 g for 30 minutes, the mixture was resuspended in deionized water. After washing twice, the resulting nanostructure was analyzed by EMSA.
After incubating the mixture solution overnight and centrifuging at 16,100 g for 30 minutes, the mixture was resuspended in deionized water.
After heating the mixed solution for 10 minutes at 70° C., it was immediately snap-cooled on ice. RiboRuler Low Range RNA Ladder and RiboRuler High Range RNA Ladder (Thermo Scientific, Waltham, USA) were used on the two lanes on the left side of agarose gel in order to identify the relative locations of the EGFP mRNA bands. The bands of the RiboRuler Low Range RNA Ladder correspond to 1000, 800, 600, 400, 300, 200 and 100 bases, from top to bottom, and the bands of the RiboRuler High Range RNA Ladder correspond to 6000, 4000, 3000, 2000, 1500, 1000, 500 and 200 bases, from top to bottom. Then, the mixtures with charge ratios (+/−) of 0, 0.031, 0.063, 0.125, 0.25, 0.5, 1, 2, 4, 8 and 16 were loaded in sequence.
After heating the mixed solution for 10 minutes at 70° C., it was immediately snap-cooled on ice. RiboRuler High Range RNA Ladder (Thermo Scientific, Waltham, USA) was used on the left side of agarose gel in order to identify the relative locations of the EGFP mRNA bands. The bands of the RiboRuler High Range RNA Ladder correspond to 6000, 4000, 3000, 2000, 1500, 1000, 500 and 200 bases, from top to bottom. Then, the samples were loaded with charge ratios (+/−) of 00, 0.063, 0.125, 0.25, 0.5, 1, 2, 4, 8, 16 and 32 in sequence.

The nature of data set [1]: Coating of gold nanoparticles (TEM). The following applies: citrate-modified AuNP aqueous solution. As to the method:
Colloidal gold was prepared by reducing HAuCl4 with sodium citrate. 50 mL of a 0.01% HAuCl4 (0.243 mM) aqueous solution was boiled vigorously while stirring in a round-bottom flask equipped with a reflux condenser. Then, 10 mL of a 0.1% sodium citrate aqueous solution (3.4 mM) was added to the boiling HAuCl4 solution. The color of the solution turned from yellow to deep purple and then to wine red within 3 minutes. The mixture was boiled further for 10 minutes and cooled to room temperature while continuously stirring overnight. The concentration of the colloidal gold was determined with a spectrophotometer.
It was investigated whether the gold nanoparticles (AuNP) prepared above are coated with the peptide-molecule conjugates prepared in Examples 1-3 (SAB1 to SAB3). First, the peptide-molecule conjugates of Examples 1-3 (SAB1 to SAB3) were dispersed in distilled water to prepare 20 μM aqueous solutions, respectively. After sonicating the SAB1 to SAB3 aqueous solutions (20 μM, 50 μL) for at least 5 minutes, they were immediately added to the AuNP solution (200 μL), respectively. […] After washing twice, the solution was analyzed by CD and TEM.

The test system of data set [2] is linear double-stranded DNA (dsDNA) (7528 base pairs). As to the kind of experiment: EMSA of nanostructure formation with dsDNA. The data set is classed as binding. The protocol:
as §1
For this, a pTWIN1 plasmid DNA vector was purchased from New England BioLabs (Ipswich, USA), genetically recombined to express a specific protein (Rev), and then linearized with a BamH1 restriction enzyme purchased from the same company to prepare a linear double-stranded DNA (dsDNA) (7528 base pairs). The peptide-molecule conjugates of Examples 1-3 (SAB1 to SAB3) were dispersed in distilled water to prepare 20 μM aqueous solutions. The SAB1 to SAB3 aqueous solutions (20 μM, 50 μL) were sonicated for at least 5 minutes and then immediately added to the dsDNA solution (200 μL). […] A SAB2/dsDNA nanostructure was prepared by incubating the mixture overnight. Then, after centrifuging at 16,100 g for 30 minutes, the nanostructure was resuspended in deionized water. After washing twice, the nanostructure was analyzed by TEM and EMSA.
In general terms: Mobility shift assays separate free from complexed probe on a gel.

Take “Ac-(PEG8)-AELAALEAELAALE-(Ahx)2-K-(Ahx)2-KLAALKAKLAALKAG-(PEG8)-NH2 [SAB2]”: in the data set with EGFP mRNA, the “+/− (optimum charge ratio of EGFP mRNA and conjugate showing completely delayed electrophoretic mobility)” value was found to be 30. The “dispersibility of coated gold nanoparticles” value in data set [1] is “precipitates were formed due to aggregation of the gold nanoparticles”. Also, the “nanostructure formation with dsDNA” value in data set [2] is “best result”. Further, in data set [2] (dsDNA concentration fixed), the “charge ratio (+/−) from which delay of EMSA band was observed” value was determined as 0.031 and the “charge ratio at which SAB2/dsDNA nanostructure was prepared through self-assembly” value is 0.5.
